Test [1] deals with T1, PCSK9 (Homo sapiens, UniProt Q8NBP7).
T1 construct: Biotinylated PCSK9 was obtained commercially; purchased
Description: PCSK9 Alexa FRET Ultra TR-FRET assay (displacement of AlexaFluor647 tagged cyclic peptide). It is filed as binding. Conditions: 0.5 nM biotinylated PCSK9, 960 nM AF cyclic peptide, Ki calculated from IC50 and KD of AF peptide. The method, then:
(§1) The following is a description of the assays used to determine activity of compounds of the invention, and any comparator compounds reported, toward PCSK9 antagonism. Biotinylated PCSK9 was obtained commercially.
A solution containing 1 nM biotinylated PCSK9+2.5 nM Lance Streptavidin Europium (Strep-Eu) is made in 50 mM HEPES pH 7.4, 0.15 M NaCl, 5 mM CaCl2, 0.01% BSA, and 0.01% Surfactant P20. A separate solution containing 1920 nM of the AlexaFluor tagged cyclic peptide is made in the same buffer system. An Echo is used to transfer 0.015 ul of compound plus 0.735 ul of DMSO to each well of an assay plate followed by the addition of 15 ul of PCSK9+Stept-Eu and 15 ul of AF peptide. The final assay volume is 30.750 ul containing 0.5 nM PCSK9, 1.25 nM Strep-Eu, and 960 nM AF cyclic peptide. The reaction is incubated at room temperature for at least two hours prior to fluorescence measurements using an Envision Multilabel Reader. IC50 values are determined by fitting data to a sigmoidal dose-response curve using nonlinear regression. Ki is then calculated from the IC50 and the KD of AF cyclic peptide. Counts (B-counts) of the europium-labeled PCSK9 are followed to observe if compounds are adversely affecting PCSK9. A fall off of the B-counts is likely indicates a false positive of inhibition. Data from this procedure is reported as “Ki Ultra=‘numerical value’ (data reported is nanomolar)”

For test [2], the target named is T1, PCSK9. As to the kind of experiment: PCSK9 Alexa FRET Plus TR-FRET assay (displacement of AlexaFluor647 tagged cyclic peptide Reagent B). Conditions: 0.5 nM biotinylated PCSK9, 960 nM AF cyclic peptide Reagent B, Ki calculated from IC50 and KD of AF peptide. It counts as binding. The method, then:
as §1
A solution containing 1 nM biotinylated PCSK9+2.5 nM Lance Streptavidin Europium (Strep-Eu) is made in 50 mM HEPES pH 7.4, 0.15 M NaCl, 5 mM CaCl2, 0.01% BSA, and 0.01% Surfactant P20. A separate solution containing 1920 nM of the AlexaFluor tagged cyclic peptide is made in the same buffer system. An Echo is used to transfer 0.075 ul of compound plus 0.675 ul of DMSO to each well of an assay plate followed by the addition of 15 ul of PCSK9+Stept-Eu and 15 ul of AF peptide. The final assay volume is 30.750 ul containing 0.5 nM PCSK9, 1.25 nM Strep-Eu, and 960 nM AF cyclic peptide. The reaction is incubated at room temperature for at least two hours prior to fluorescence measurements using an Envision Multilabel Reader. IC50 values are determined by fitting data to a sigmoidal dose-response curve using nonlinear regression. Ki is then calculated from the IC50 and the KD of AF cyclic peptide. Counts (B-counts) of the europium-labeled PCSK9 are followed to observe if compounds are adversely affecting PCSK9. A fall off of the B-counts is likely indicates a false positive of inhibition. Data from this procedure is reported as “P=‘numerical value’ (nanomolar)”
Activity data obtained by one or both of the above-described procedures is reported for selected example compounds of the invention in the following format: Example No.: A (standard TR Fret)=‘numerical value’; P (Alexa Fret plus standard TR Fret)=‘numerical value’/, note that all values reported are nanomolar.

T1 sequence (Q8NBP7 153-692): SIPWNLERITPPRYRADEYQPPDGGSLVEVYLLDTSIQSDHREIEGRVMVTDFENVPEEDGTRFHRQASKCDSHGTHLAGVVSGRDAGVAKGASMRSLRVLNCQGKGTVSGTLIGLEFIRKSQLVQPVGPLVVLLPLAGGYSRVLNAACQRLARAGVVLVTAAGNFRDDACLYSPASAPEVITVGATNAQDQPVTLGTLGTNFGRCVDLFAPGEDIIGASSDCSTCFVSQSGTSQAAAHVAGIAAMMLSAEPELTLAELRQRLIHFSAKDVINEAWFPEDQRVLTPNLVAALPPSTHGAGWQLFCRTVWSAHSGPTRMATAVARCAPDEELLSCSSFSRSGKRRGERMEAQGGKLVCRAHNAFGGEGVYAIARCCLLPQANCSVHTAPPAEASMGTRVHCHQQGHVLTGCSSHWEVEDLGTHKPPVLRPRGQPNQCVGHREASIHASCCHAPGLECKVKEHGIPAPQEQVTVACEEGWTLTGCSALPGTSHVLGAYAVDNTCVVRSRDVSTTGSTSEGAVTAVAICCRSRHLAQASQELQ

The term Ki denotes the equilibrium dissociation constant of an inhibitor or competing ligand from its target. `COc1ccc(C[C@@H]2NC(=O)[C@H]([C@@H](C)O)NC(=O)[C@@H]3[C@@H]4CCN3C(=O)[C@@H]3Cc5cn(c6ccc(F)cc56)CCCCCCN(Cc5ccc(cc5)CCNC(=O)[C@]5(C)CCCN5C2=O)C(=O)CCC(=O)N[C@@H](CCCC[N+](C)(C)C)C(=O)N[C@H](CNC(=O)CCOCCOCC[N+](C)(C)C)C(=O)N[C@@H](Cc2cccc(c2)CNC(=O)CO4)C(=O)N3)cc1` (stereo in doubt) [Ex-24]: the Ki in test [1] (Ki Ultra) is 0.00767 nM; in test [2] (Ki Plus), 0.00812 nM.
As for `COc1ccc(C[C@@H]2NC(=O)[C@H]([C@@H](C)O)NC(=O)[C@@H]3[C@@H]4CCN3C(=O)[C@@H]3Cc5cn(c6ccc(F)cc56)CCCCCCN(Cc5ccc(cc5)CCNC(=O)[C@]5(C)CCCN5C2=O)C(=O)CCC(=O)N[C@@H](C)C(=O)N[C@H](CN)C(=O)N[C@@H](Cc2cccc(c2)CNC(=O)CO4)C(=O)N3)cc1` [Ex-01], the Ki in test [1] (Ki Ultra) is 0.0046 nM; in test [2] (Ki Plus), below 0.00558 nM.
Turning to `COc1ccc(C[C@@H]2NC(=O)[C@H]([C@@H](C)O)NC(=O)[C@@H]3[C@@H]4CCN3C(=O)[C@@H]3Cc5cn(c6ccc(F)cc56)C/C=C\CCCN(Cc5ccc(cc5)CCNC(=O)[C@]5(C)CCCN5C2=O)C(=O)CCC(=O)N[C@@H](CNC(=O)CCOCCOCC[N+](C)(C)C)C(=O)N[C@H](C)C(=O)N[C@@H](Cc2cccc(c2)CNC(=O)CO4)C(=O)N3)cc1` [Ex-04], the Ki in test [1] (read-out: Ki Ultra) is 0.00471 nM; in test [2] (read-out: Ki Plus) it was at most 0.00558 nM.
The matching figures for `COc1ccc(C[C@@H]2NC(=O)[C@H]([C@@H](C)O)NC(=O)[C@@H]3[C@@H]4CCN3C(=O)[C@@H]3Cc5cn(c6ccc(F)cc56)C/C=C/CCCN(Cc5ccc(cc5)CCNC(=O)[C@]5(C)CCCN5C2=O)C(=O)CCC(=O)N[C@@H](CNC(=O)CCOCCOCC[N+](C)(C)C)C(=O)N[C@H](C)C(=O)N[C@@H](Cc2cccc(c2)CNC(=O)CO4)C(=O)N3)cc1` [Ex-05]: 0.033 nM and 0.00962 nM.
The matching figures for `COc1ccc(C[C@@H]2NC(=O)[C@H]([C@@H](C)O)NC(=O)[C@@H]3[C@@H]4CCN3C(=O)[C@@H]3Cc5cn(c6ccc(F)cc56)C/C=C/CCCN(Cc5ccc(cc5)CCNC(=O)[C@]5(C)CCCN5C2=O)C(=O)CCC(=O)N[C@@H](C)C(=O)N[C@H](CNC(=O)CCCCC[N+](C)(C)C)C(=O)N[C@@H](Cc2cccc(c2)CNC(=O)CO4)C(=O)N3)cc1` [Ex-06]: 0.00342 nM and 0.00568 nM.
On the same counts, the results for `COc1ccc(C[C@@H]2NC(=O)[C@H]([C@@H](C)O)NC(=O)[C@@H]3[C@@H]4CCN3C(=O)[C@@H]3Cc5cn(c6ccc(F)cc56)C/C=C/CCCN(Cc5ccc(cc5)CCNC(=O)[C@]5(C)CCCN5C2=O)C(=O)CCC(=O)N[C@H]2CN(C(=O)CCOCCOCC[N+](C)(C)C)CCCCC(=O)NC[C@@H](NC2=O)C(=O)N[C@@H](Cc2cccc(c2)CNC(=O)CO4)C(=O)N3)cc1` [Ex-07] are 0.0675 nM and 0.0591 nM.
With `COc1ccc(C[C@@H]2NC(=O)[C@H]([C@@H](C)O)NC(=O)[C@@H]3[C@@H]4CCN3C(=O)[C@@H]3Cc5cn(c6ccc(F)cc56)Cc5cn(nn5)Cc5cc(ccc5CNC(=O)CCC(=O)N[C@@H](C)C(=O)N[C@H](CNC(=O)CCOCCOCC[N+](C)(C)C)C(=O)N[C@@H](Cc5cccc(c5)CNC(=O)CO4)C(=O)N3)CCNC(=O)[C@]3(C)CCCN3C2=O)cc1` [Ex-08], the Ki in test [1] (read-out: Ki Ultra) is 0.0683 nM; in test [2] (read-out: Ki Plus), 0.0157 nM.
As for `COc1ccc(C[C@@H]2NC(=O)[C@H]([C@@H](C)O)NC(=O)[C@@H]3[C@@H]4CCN3C(=O)[C@@H]3Cc5cn(c6ccc(F)cc56)Cc5cn(nn5)Cc5cc(ccc5CNC(=O)CCC(=O)N[C@@H](C)C(=O)N[C@H](CNC(=O)CCOCCOCC[N+](C)(C)C)C(=O)N[C@@H](Cc5cccc(c5)CNC(=O)CO4)C(=O)N3)CCNC(=O)[C@]3(C)CCCN3C2=O)cc1` [Ex-09], the figures for the Ki in test [1] (Ki Ultra) and in test [2] (Ki Plus) were 0.247 nM and 0.0919 nM, respectively.
For the compound `COc1ccc(C[C@@H]2NC(=O)[C@H]([C@@H](C)O)NC(=O)[C@@H]3[C@@H]4CCN3C(=O)[C@@H]3Cc5cn(c6ccc(F)cc56)Cc5cn(nn5)C[C@@H](NC(=O)CCC(=O)N[C@@H](C)C(=O)N[C@H](CNC(=O)CCOCCOCC[N+](C)(C)C)C(=O)N[C@@H](Cc5cccc(c5)CNC(=O)CO4)C(=O)N3)c3ccc(cc3)CCNC(=O)[C@]3(C)CCCN3C2=O)cc1` [Ex-10], the inhibitory constant (Ki) is 0.0249 nM in test [1] (read-out: Ki Ultra) and 0.00574 nM in test [2] (read-out: Ki Plus).
The matching figures for `COc1ccc(C[C@@H]2NC(=O)[C@H]([C@@H](C)O)NC(=O)[C@@H]3[C@@H]4CCN3C(=O)[C@@H]3Cc5cn(c6ccc(F)cc56)Cc5cn(nn5)C[C@@H](NC(=O)CCC(=O)N[C@@H](CNC(=O)CCOCCOCC[N+](C)(C)C)C(=O)N[C@H](C)C(=O)N[C@@H](Cc5cccc(c5)CNC(=O)CO4)C(=O)N3)c3ccc(cc3)CCNC(=O)[C@]3(C)CCCN3C2=O)cc1` [Ex-11]: 0.207 nM and 0.0433 nM.
As to `COc1ccc(C[C@@H]2NC(=O)[C@H]([C@@H](C)O)NC(=O)[C@@H]3[C@@H]4CCN3C(=O)[C@@H]3Cc5cn(c6ccc(F)cc56)Cc5cn(nn5)CC(NC(=O)CCCCCC(=O)N[C@H](CNC(=O)CCOCCOCC[N+](C)(C)C)C(=O)N[C@@H](Cc5cccc(c5)CNC(=O)CO4)C(=O)N3)c3ccc(cc3)CCNC(=O)[C@]3(C)CCCN3C2=O)cc1` [Ex-12], the Ki in test [1] (read-out: Ki Ultra) is 0.0225 nM; in test [2] (read-out: Ki Plus), 0.0145 nM.
The matching figures for `COc1ccc(C[C@@H]2NC(=O)[C@H]([C@@H](C)O)NC(=O)[C@@H]3[C@@H]4CCN3C(=O)[C@@H]3Cc5cn(c6ccc(F)cc56)Cc5cn(nn5)CCN(Cc5ccc(cc5)CCNC(=O)[C@]5(C)CCCN5C2=O)C(=O)CCC(=O)N[C@@H](CNC(=O)CCOCCOCC[N+](C)(C)C)C(=O)N[C@H](C)C(=O)N[C@@H](Cc2cccc(c2)CNC(=O)CO4)C(=O)N3)cc1` [Ex-13]: 0.477 nM and 0.145 nM.
With `COc1ccc(C[C@@H]2NC(=O)[C@H]([C@@H](C)O)NC(=O)[C@@H]3[C@@H]4CCN3C(=O)[C@@H]3Cc5cn(c6ccc(F)cc56)Cc5cn(nn5)CCN(Cc5ccc(cc5)CCNC(=O)[C@]5(C)CCCN5C2=O)C(=O)CCC(=O)N[C@@H](C)C(=O)N[C@H](CNC(=O)CCOCCOCC[N+](C)(C)C)C(=O)N[C@@H](Cc2cccc(c2)CNC(=O)CO4)C(=O)N3)cc1` [Ex-14], the results for the inhibition constant (Ki) in test [1] (read-out: Ki Ultra) and in test [2] (read-out: Ki Plus) were 0.021 nM and 0.016 nM, respectively.
Regarding `COc1ccc(C[C@@H]2NC(=O)[C@H]([C@@H](C)O)NC(=O)[C@@H]3[C@@H]4CCN3C(=O)[C@@H]3Cc5cn(c6ccc(F)cc56)Cc5cn(nn5)CCN(Cc5ccc(cc5)CCNC(=O)[C@]5(C)CCCN5C2=O)C(=O)CCCC(=O)N[C@@H](CNC(=O)CCOCCOCC[N+](C)(C)C)C(=O)N[C@H](C)C(=O)N[C@@H](Cc2cccc(c2)CNC(=O)CO4)C(=O)N3)cc1` [Ex-15], the inhibition constant (Ki) is 0.26 nM in test [1] (read-out: Ki Ultra) and 0.103 nM in test [2] (read-out: Ki Plus).
As to `COc1ccc(C[C@@H]2NC(=O)[C@H]([C@@H](C)O)NC(=O)[C@@H]3[C@@H]4CCN3C(=O)[C@@H]3Cc5cn(c6ccc(F)cc56)CCCCN(Cc5ccc(cc5)CCNC(=O)[C@]5(C)CCCN5C2=O)C(=O)CCC(=O)N[C@@H](C)C(=O)N[C@H](CNC(=O)CCOCCOCC[N+](C)(C)C)C(=O)N[C@@H](Cc2cccc(c2)CNC(=O)CO4)C(=O)N3)cc1` [Ex-28], the Ki in test [2] (read-out: Ki Plus) is at most 0.00558 nM.
Consider `COc1ccc(C[C@@H]2NC(=O)[C@H]([C@@H](C)O)NC(=O)[C@@H]3[C@@H]4CCN3C(=O)[C@@H]3Cc5cn(c6ccc(F)cc56)CCCCCCN(Cc5ccc(cc5)CCNC(=O)[C@]5(C)CCCN5C2=O)C(=O)CCC(=O)N[C@@H](C)C(=O)N[C@H](CNC(=O)CCOCC[N+](C)(C)C)C(=O)N[C@@H](Cc2cccc(c2)CNC(=O)CO4)C(=O)N3)cc1` [Ex-31], for which the inhibition constant Ki in test [2] (Ki Plus) is below 0.00558 nM.

The record behind these values is patent publication US12209145B2, “PCSK9 antagonist compounds” (Merck Sharp & Dohme LLC, priority 2018, dated 2025).
